# Source: patent US20020192754A1 (MAX-PLANCK-GESELLSCHAFT E.V., priority 1999, published 2002)
# Where two headings read alike, the source gives them in different places. Where a SMILES comes first, the peptide text is derived from it. [ ]: non-standard residue; d: D form. The star is where a group is joined. Sta = CC(C)C[C@H](N)[C@@H](O)CC(=O)O; Isovaleryl = CC(C)CC(=O)*; CH2Cl = ClC*
# What was measured:
# human GzmK [1] = biological target: T1, human GzmK (Homo sapiens, UniProt P49863); assay: Inhibition of human GzmK by various inhibitors (residual activity, this study); format: biochemical
# T1 construct: Met-Glu N-terminal helper dipeptide (pro-dipeptide) (N, cleaved yes); made in house
# T1 sequence (P49863 27-264): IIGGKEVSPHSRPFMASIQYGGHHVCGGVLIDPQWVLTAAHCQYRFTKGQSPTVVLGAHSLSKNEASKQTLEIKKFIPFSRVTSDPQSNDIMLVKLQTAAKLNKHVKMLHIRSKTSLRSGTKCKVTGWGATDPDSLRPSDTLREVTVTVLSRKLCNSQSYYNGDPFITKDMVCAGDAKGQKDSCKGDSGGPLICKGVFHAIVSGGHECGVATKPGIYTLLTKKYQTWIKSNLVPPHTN
# Method: These activity tests were performed in wells of a 96-cup tray with respectively 150 μl of the sample volume.
# The thiobenzylester substrates and Ellman's reagency were diluted to end concentrations of 0.3 mM in the test buffer (150 mM Tris, 50 mM NaCl, 0.01% Triton X-100, pH 7.6). The various granzyme preparations were likewise diluted to 3-15 nM in the test buffer. The color change occurring with the conversion of the substrates was measured at 405 nm and room temperature over 5 minutes in the ELISA reader. The difference in absorptions at the beginning and after 5 minutes as it relates to time was used to calculate the conversion rate.
# After a 60-minute preincubation at RT the residual activity was ascertained in triple batches. Initial activities were determined in buffers containing the same proportion of organic solvents. […] Molar concentrations of active aprotinine were ascertained with the use of activity-titrated bovine trypsin.
# human GzmK [2] = biological target: T1, human GzmK; details: cited from earlier work
# [3] = inhibitor 0.1 mM, I:E 33 x 10^3, 3 nM human GzmK, 60-minute preincubation at RT
molecule,measurement,setting,value
N=C(N)c1ccccc1 [Benzamidine],remaining activity at 27000 µM,"human GzmK [1]; inhibitor 27.0 mM, I:E 9000 x 10^3, 3 nM human GzmK, 60-minute preincubation at RT",43.1%
same,"Residual Activity (%) Babé et al., Bio. Appl. Bioch. 27:117-124 (1998)",human GzmK [2]; table row: inhibitor 27.0 mM,50%
O=C(O)CN(CCN(CC(=O)O)CC(=O)O)CC(=O)O [EDTA],Residual Activity (%) This study,human GzmK [1],106.4%
same,"Residual Activity (%) Babé et al., Bio. Appl. Bioch. 27:117-124 (1998)",human GzmK [2],100%
NC(N)=NCCC[C@H](NC(=O)CNC(=O)[C@@H](N)CCC(=O)O)C(=O)CCl [EGR-CMK] (H-Glu-Gly-Arg-CH2Cl),Residual Activity (%) This study,human GzmK [1]; [3],54.8%
NC(N)=NCCC[C@H](NC(=O)[C@@H]1CCCN1C(=O)[C@H](N)Cc1ccccc1)C(=O)CCl [FPR-CMK],Residual Activity (%) This study,human GzmK [1]; [3],0.0%
CC(=O)N[C@@H](CC(C)C)C(=O)N[C@@H](CC(C)C)C(=O)N[C@H](C=O)CCCNC(=N)N [Leupeptin],remaining activity at 200 µM,"human GzmK [1]; inhibitor 0.2 mM, I:E 67 x 10^3, 3 nM human GzmK, 60-minute preincubation at RT",78%
same,"Residual Activity (%) Babé et al., Bio. Appl. Bioch. 27:117-124 (1998)",human GzmK [2]; table row: inhibitor 0.2 mM,50%
Cl.NCCc1ccc(S(=O)(=O)F)cc1 [PefablocSC],Residual Activity (%) This study,"human GzmK [1]; inhibitor 0.5 mM, I:E 170 x 10^3, 3 nM human GzmK, 60-minute preincubation at RT",26.0%
same,Residual Activity (%) This study,"human GzmK [1]; inhibitor 1.0 mM, I:E 330 x 10^3, 3 nM human GzmK, 60-minute preincubation at RT",5.7%
CC(C)CC(=O)N[C@H](C(=O)N[C@H](C(=O)N[C@@H](CC(C)C)[C@@H](O)CC(=O)N[C@@H](C)C(=O)N[C@@H](CC(C)C)[C@@H](O)CC(=O)O)C(C)C)C(C)C [Pepstatin A] (Isovaleryl-VV[Sta]A[Sta]-OH),Residual Activity (%) This study,"human GzmK [1]; inhibitor 0.001 mM, I:E 0.3 x 10^3, 3 nM human GzmK, 60-minute preincubation at RT",93.0%
same,"Residual Activity (%) Babé et al., Bio. Appl. Bioch. 27:117-124 (1998)",human GzmK [2]; table row: inhibitor 0.001 mM,100%
Aprotinine,Residual Activity (%) This study,"human GzmK [1]; inhibitor 0.015 mM, I:E 5 x 10^3, 3 nM human GzmK, 60-minute preincubation at RT",8.6%
same,"Residual Activity (%) Babé et al., Bio. Appl. Bioch. 27:117-124 (1998)",human GzmK [2]; table row: inhibitor 0.015 mM,0%
N-tosyllysine chloromethylketone [TLCK],Residual Activity (%) This study,human GzmK [1]; [3],91.0%
same,"Residual Activity (%) Babé et al., Bio. Appl. Bioch. 27:117-124 (1998)",human GzmK [2]; table row: inhibitor 0.1 mM,0%
N-tosylphenylalanine chloromethylketone [TPCK],Residual Activity (%) This study,"human GzmK [1]; inhibitor 0.05 mM, I:E 17 x 10^3, 3 nM human GzmK, 60-minute preincubation at RT",96.0%
same,"Residual Activity (%) Babé et al., Bio. Appl. Bioch. 27:117-124 (1998)",human GzmK [2]; table row: inhibitor 0.05 mM,95%
